Assay results: patent US20260297081A1, “COMPOUNDS AND METHODS OF TREATING CANCERS” (Cullgen Inc., priority 2023, published 2026)
Like-named read-outs stand apart in the source and are kept apart here.

Test system: MCF7 cells
Experiment: Anti-proliferation (viability) of MCF7 cells (Table 7, FIG. 2B)
Format: cell-based
Conditions: 3-6 days, 10-point serial dilution, read-out: GI IC50 in MCF-7

IC50 (MCF7 cells) [nM] | IC50 (Homo sapiens, MCF7, MCF7 cells) [nM] | Compound
 | 50 to 100 | COc1cccc(NC(=O)c2ccc(NC(C)C)nc2NC2CC3(CC(NC(=O)CN4CCN(c5ccc(Nc6ncc7c(C)c(C(C)=O)c(=O)n(C8CCCC8)c7n6)nc5)CC4)C3)C2)n1 (stereo not drawn) [CPD-453, 2-((6-(2-(4-(6-((6-acetyl-8-cyclopentyl-5-methyl-7-oxo-7,8-dihydropyrido[2,3-d]pyrimidin-2-yl)amino)pyridin-3-yl)piperazin-1-yl)acetamido)spiro[3.3]heptan-2-yl)amino)-6-(isopropylamino)-N-(6-methoxypyridin-2-yl)nicotinamide]
 | < 50 | CC(=O)c1c(C)c2cnc(Nc3ccc(N4CCN(C(C)C(=O)NC5CC6(C5)CC(Nc5nc(NC(C)C)ccc5C(=O)Nc5ccc(N(C)C)nn5)C6)CC4)cn3)nc2n(C2CCCC2)c1=O (stereo not drawn) [CPD-406, 2-((6-(2-(4-(6-((6-acetyl-8-cyclopentyl-5-methyl-7-oxo-7,8-dihydropyrido[2,3-d]pyrimidin-2-yl)amino)pyridin-3-yl)piperazin-1-yl)propanamido)spiro[3.3]heptan-2-yl)amino)-N-(6-(dimethylamino)pyridazin-3-yl)-6-(isopropylamino)nicotinamide]
 | > 100 | CNc1ccc(C(=O)Nc2ccc(N(C)C)nn2)c(NC2CCC(C(=O)N3CCC4(CC3)CCN(c3ccc(Nc5ncc6c(C)c(C(C)=O)c(=O)n(C7CCCC7)c6n5)nc3)CC4)CC2)n1 (stereo not drawn) [CPD-350, 2-((4-(9-(6-((6-acetyl-8-cyclopentyl-5-methyl-7-oxo-7,8-dihydropyrido[2,3-d]pyrimidin-2-yl)amino)pyridin-3-yl)-3,9-diazaspiro[5.5]undecane-3-carbonyl)cyclohexyl)amino)-N-(6-(dimethylamino)pyridazin-3-yl)-6-(methylamino)nicotinamide]
 | > 100 | CNc1ccc(C(=O)Nc2ccc(N(C)C)nn2)c(N[C@H]2C[C@@H](CN3CCC(CN4CCN(c5ccc(Nc6ncc7c(C)c(C(C)=O)c(=O)n(C8CCCC8)c7n6)nc5)CC4)C3)C2)n1 (stereo partly drawn) [CPD-336]
 | 50 to 100 | CC(=O)c1c(C)c2cnc(Nc3ccc(N4CCC(NCC(=O)NC5CC(Nc6nc(NC(C)C)ccc6C(=O)Nc6ccc(N(C)C)nn6)C5)CC4)cn3)nc2n(C2CCCC2)c1=O (stereo not drawn) [CPD-382, 2-((3-(2-((1-(6-((6-acetyl-8-cyclopentyl-5-methyl-7-oxo-7,8-dihydropyrido[2,3-d]pyrimidin-2-yl)amino)pyridin-3-yl)piperidin-4-yl)amino)acetamido)cyclobutyl)amino)-N-(6-(dimethylamino)pyridazin-3-yl)-6-(isopropylamino)nicotinamide]
 | < 50 | CC(=O)c1c(C)c2cnc(Nc3ccc(N4CCC(NCC(=O)N5CCC(Nc6nc(NC(C)C)ccc6C(=O)Nc6ccc(N(C)C)nn6)CC5)CC4)cn3)nc2n(C2CCCC2)c1=O [CPD-357, 2-((1-((1-(6-((6-acetyl-8-cyclopentyl-5-methyl-7-oxo-7,8-dihydropyrido[2,3-d]pyrimidin-2-yl)amino)pyridin-3-yl)piperidin-4-yl)glycyl)piperidin-4-yl)amino)-N-(6-(dimethylamino)pyridazin-3-yl)-6-(isopropylamino)nicotinamide]
 | > 100 | CC(=O)c1c(C)c2cnc(Nc3ccc(N4CCN(CCC(=O)N5CCC(Nc6nc(NC(C)C)ccc6C(=O)Nc6cn(C)c(C7CC7)n6)CC5)CC4)cn3)nc2n(C2CCCC2)c1=O [CPD-313, 2-((1-(3-(4-(6-((6-acetyl-8-cyclopentyl-5-methyl-7-oxo-7,8-dihydropyrido[2,3-d]pyrimidin-2-yl)amino)pyridin-3-yl)piperazin-1-yl)propanoyl)piperidin-4-yl)amino)-N-(2-cyclopropyl-1-methyl-1H-imidazol-4-yl)-6-(isopropylamino)nicotinamide]
 | > 100 | CC(=O)c1c(C)c2cnc(Nc3ccc(N4CCC5(CC4)CC(C(=O)NC4CC6(C4)CC(Nc4nc(NC(C)C)ccc4C(=O)Nc4ccc(N(C)C)nn4)C6)C5)cn3)nc2n(C2CCCC2)c1=O (stereo not drawn) [CPD-437, 7-(6-((6-acetyl-8-cyclopentyl-5-methyl-7-oxo-7,8-dihydropyrido[2,3-d]pyrimidin-2-yl)amino)pyridin-3-yl)-N-(6-((3-((6-(dimethylamino)pyridazin-3-yl)carbamoyl)-6-(isopropylamino)pyridin-2-yl)amino)spiro[3.3]heptan-2-yl)-7-azaspiro[3.5]nonane-2-carboxamide]
 | > 100 | [2H]C([2H])([2H])Nc1ccc(C(=O)Nc2cc(C)n(C)n2)c(NC2CC(C(C)NC(=O)CN3CCN(c4ccc(Nc5ncc6c(C)c(C(C)=O)c(=O)n(C7CCCC7)c6n5)nc4)CC3)C2)n1 (stereo not drawn) [CPD-353, 2-((3-(1-(2-(4-(6-((6-acetyl-8-cyclopentyl-5-methyl-7-oxo-7,8-dihydropyrido[2,3-d]pyrimidin-2-yl)amino)pyridin-3-yl)piperazin-1-yl)acetamido)ethyl)cyclobutyl)amino)-N-(1,5-dimethyl-1H-pyrazol-3-yl)-6-((methyl-d3)amino)nicotinamide]
 | > 100 | CC(=O)c1c(C)c2cnc(Nc3ccc(N4CCN(CC(=O)NC5CC6(C5)CC(Nc5nc(C(C)(C)O)ccc5C(=O)Nc5cn(C)c(C7CC7)n5)C6)CC4)cn3)nc2n(C2CCCC2)c1=O (stereo not drawn) [CPD-352, 2-((6-(2-(4-(6-((6-acetyl-8-cyclopentyl-5-methyl-7-oxo-7,8-dihydropyrido[2,3-d]pyrimidin-2-yl)amino)pyridin-3-yl)piperazin-1-yl)acetamido)spiro[3.3]heptan-2-yl)amino)-N-(2-cyclopropyl-1-methyl-1H-imidazol-4-yl)-6-(2-hydroxypropan-2-yl)nicotinamide]

Second part, the compound before the results:

Compound | IC50 (MCF7 cells) [nM] | IC50 (Homo sapiens, MCF7, MCF7 cells) [nM]
CC(=O)c1c(C)c2cnc(Nc3ccc(N4CCN(C5CCN(C(=O)C6(O)CCC(Nc7nc(NC(C)C)ccc7C(=O)Nc7ccc(N(C)C)nn7)CC6)C5)CC4)cn3)nc2n(C2CCCC2)c1=O (stereo not drawn) [CPD-575, 2-((trans-4-(3-(4-(6-((6-acetyl-8-cyclopentyl-5-methyl-7-oxo-7,8-dihydropyrido[2,3-d]pyrimidin-2-yl)amino)pyridin-3-yl)piperazin-1-yl)pyrrolidine-1-carbonyl)-4-hydroxycyclohexyl)amino)-N-(6-(dimethylamino)pyridazin-3-yl)-6-(isopropylamino)nicotinamide] | > 100 | 
CNc1ccc(C(=O)Nc2ccc(N(C)C)nn2)c(NC23CC(NC(=O)CN4CCN(c5ccc(Nc6ncc7c(C)c(C(C)=O)c(=O)n(C8CCCC8)c7n6)nc5)CC4)(C2)C3)n1 [CPD-346, 2-((3-(2-(4-(6-((6-acetyl-8-cyclopentyl-5-methyl-7-oxo-7,8-dihydropyrido[2,3-d]pyrimidin-2-yl)amino)pyridin-3-yl)piperazin-1-yl)acetamido)bicyclo[1.1.1]pentan-1-yl)amino)-N-(6-(dimethylamino)pyridazin-3-yl)-6-(methylamino)nicotinamide] |  | > 100
CNc1ccc(C(=O)Nc2ccc(N(C)C)nn2)c(NC2CC3(C2)CC(C(=O)N2CC(N4CCN(c5ccc(Nc6ncc7c(C)c(C(C)=O)c(=O)n(C8CCCC8)c7n6)nc5)CC4)C2)C3)n1 (stereo not drawn) [CPD-362, 2-((6-(3-(4-(6-((6-acetyl-8-cyclopentyl-5-methyl-7-oxo-7,8-dihydropyrido[2,3-d]pyrimidin-2-yl)amino)pyridin-3-yl)piperazin-1-yl)azetidine-1-carbonyl)spiro[3.3]heptan-2-yl)amino)-N-(6-(dimethylamino)pyridazin-3-yl)-6-(methylamino)nicotinamide] |  | > 100
[2H]C([2H])([2H])Nc1ccc(C(=O)Nc2ccc(N(C)C)nn2)c(NC2CC3(C2)CC(C(=O)N2CCC4(CCN(c5ccc(Nc6ncc7c(C)c(C(C)=O)c(=O)n(C8CCCC8)c7n6)nc5)C4)C2)C3)n1 (stereo not drawn) [CPD-379, 2-((6-(7-(6-((6-acetyl-8-cyclopentyl-5-methyl-7-oxo-7,8-dihydropyrido[2,3-d]pyrimidin-2-yl)amino)pyridin-3-yl)-2,7-diazaspiro[4.4]nonane-2-carbonyl)spiro[3.3]heptan-2-yl)amino)-N-(6-(dimethylamino)pyridazin-3-yl)-6-((methyl-d3)amino)nicotinamide] |  | > 100
CC(=O)c1c(C)c2cnc(Nc3ccc(N4CCN(CC(=O)NC(C)(C)C5CC(Nc6nc(NC(C)C)ccc6C(=O)Nc6cc(C)on6)C5)CC4)cn3)nc2n(C2CCCC2)c1=O (stereo not drawn) [CPD-410, 2-((3-(2-(2-(4-(6-((6-acetyl-8-cyclopentyl-5-methyl-7-oxo-7,8-dihydropyrido[2,3-d]pyrimidin-2-yl)amino)pyridin-3-yl)piperazin-1-yl)acetamido)propan-2-yl)cyclobutyl)amino)-6-(isopropylamino)-N-(5-methylisoxazol-3-yl)nicotinamide] |  | > 100
CC(=O)c1c(C)c2cnc(Nc3ccc(N4CC5(CN(CC(=O)N6CCC(Nc7nc(NC(C)C)ccc7C(=O)Nc7ccc(N(C)C)nn7)CC6)C5)C4)cn3)nc2n(C2CCCC2)c1=O [CPD-418, 2-((1-(2-(6-(6-((6-acetyl-8-cyclopentyl-5-methyl-7-oxo-7,8-dihydropyrido[2,3-d]pyrimidin-2-yl)amino)pyridin-3-yl)-2,6-diazaspiro[3.3]heptan-2-yl)acetyl)piperidin-4-yl)amino)-N-(6-(dimethylamino)pyridazin-3-yl)-6-(isopropylamino)nicotinamide] |  | < 50
CC(=O)c1c(C)c2cnc(Nc3ccc(N4CCC(N5CCC(C(=O)N6CC7(CC(Nc8nc(NC(C)C)ccc8C(=O)Nc8ccc(N(C)C)nn8)C7)C6)C5)CC4)cn3)nc2n(C2CCCC2)c1=O (stereo not drawn) [CPD-398, 2-((2-(1-(1-(6-((6-acetyl-8-cyclopentyl-5-methyl-7-oxo-7,8-dihydropyrido[2,3-d]pyrimidin-2-yl)amino)pyridin-3-yl)piperidin-4-yl)pyrrolidine-3-carbonyl)-2-azaspiro[3.3]heptan-6-yl)amino)-N-(6-(dimethylamino)pyridazin-3-yl)-6-(isopropylamino)nicotinamide] |  | 50 to 100
[2H]C([2H])([2H])Nc1ccc(C(=O)Nc2ccc(N(C)C)nn2)c(NC2CC3(C2)CC(C(=O)N2CC4(CCN(c5ccc(Nc6ncc7c(C)c(C(C)=O)c(=O)n(C8CCCC8)c7n6)nc5)C4)C2)C3)n1 (stereo not drawn) [CPD-378, 2-((6-(6-(6-((6-acetyl-8-cyclopentyl-5-methyl-7-oxo-7,8-dihydropyrido[2,3-d]pyrimidin-2-yl)amino)pyridin-3-yl)-2,6-diazaspiro[3.4]octane-2-carbonyl)spiro[3.3]heptan-2-yl)amino)-N-(6-(dimethylamino)pyridazin-3-yl)-6-((methyl-d3)amino)nicotinamide] |  | > 100
